Laboratory results published in patent US5387709A, “Substituted sulfonamides, process of preparation and medicines containing same” (Lipha Lyonnaise Industrielle Pharmaceutique, priority 1990, dated 1995).
Read-outs that look alike come from different tables or passages of the source.

Assays:
platelets of guinea-pig = test: Inhibition of the platelet aggregation induced by U46619 (BORN test), guinea-pig platelets; format: cell-based; settings: read-out: PLATELET AGGREGATION GUINEA-PIG IC 50
Method in brief: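 Guinea-pig platelet aggregation at threshold level triggered by U46619, the stable TXA2 analogue. IC50 taken as the concentration inhibiting this aggregation by 50%.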

rat aorta = test: Inhibition of the U46619 induced rat aorta vasoconstriction; format: cell-based; settings: contraction by U46619 (142 nM), rat thoracic aorta, 37° C., read-out: VASOCONSTRICTION RAT AORTA IC 50
Method in brief: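 Spiral strips of thoracic aorta from ~300 g male rats in oxygenated Krebs-Henseleit at 37° C., isotonic recording. Contraction induced by U46619 142 nM; compound added 10 mn after agonist and inhibition read after 15 mn. IC50 from at least 3 aortas.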

[1] = Lethal dose 50 on the rat by intravenous injection; settings: in vivo
Procedure: The compounds of this invention are characterized by their absence of toxicity. By way of illustration, for the compound described in example 20, the lethal dose 50 determined on the rat, by intravenous injection is higher than 150 mg/kg.

| Compound | IC50 (platelets of guinea-pig) | IC50 (rat aorta) | IC50 (platelets of guinea-pig; Cavia porcellus, Platelet) | IC50 (rat aorta; Rattus norvegicus) | LD50 [1] |
| --- | --- | --- | --- | --- | --- |
| O=C(O)Cc1ccc(CC2(CNS(=O)(=O)c3ccc(Cl)cc3)CCCC2)cc1 [Example 20, Sodium 4-[[1-[[[(4-chlorophenyl)sulfonyl]amino]methyl]cyclopentyl]methyl]benzeneacetate] | 280 nM | 70 nM | – | – | > 150 mg/kg |
| O=C(O)Cc1ccc(CC2(CNS(=O)(=O)c3ccc(C4CCCCC4)cc3)CCCC2)cc1 [Example 99, 4-[[1-[[[(4-Cyclohexylphenyl)sulfonyl]amino]methyl]cyclopentyl]methyl]benzeneacetic acid] | – | – | > 5000 nM | > 1000 nM | – |
| O=C(O)Cc1ccc(CC2(CNS(=O)(=O)c3c(F)c(F)c(F)c(F)c3F)CCCC2)cc1 [Example 100, 4-[[1-[[[(Pentafluorophenyl)sulfonyl]amino]methyl]cyclopentyl]methyl]benzeneacetic acid] | – | – | > 5000 nM | > 1000 nM | – |
| O=C(O)Cc1ccc(CC2(CNS(=O)(=O)c3ccc(-c4ccccc4)cc3)CCCC2)cc1 [Example 101, 4-[[1-[[([1,1'-Biphenyl-4-yl]sulfonyl)amino]methyl]cyclopentyl]methyl]benzeneacetic acid] | – | – | > 5000 nM | > 1000 nM | – |

More lines, main results first:

| IC50 (platelets of guinea-pig) | IC50 (rat aorta) | IC50 (platelets of guinea-pig; Cavia porcellus, Platelet) | IC50 (rat aorta; Rattus norvegicus) | Compound | LD50 [1] |
| --- | --- | --- | --- | --- | --- |
| – | – | 1000 nM | 180 nM | CSc1ccc(S(=O)(=O)NCC2(Cc3ccc(CC(=O)O)cc3)CCCC2)cc1 [Example 103, 4-[[1-[[[(4-methylthiophenyl]sulfonyl]amino]methyl]cyclopentyl]methyl]benzeneacetic acid] | – |
| – | – | > 5000 nM | > 1000 nM | CN(C)c1cccc2c(S(=O)(=O)NCC3(Cc4ccc(CC(=O)O)cc4)CCCC3)cccc12 [Example 104, 4-[[1-[[[[5-(Dimethylamino)naphthalen-1-yl]sulfonyl]amino]methyl]cyclopentyl]methyl]benzeneacetic acid] | – |
| – | – | 570 nM | 110 nM | O=C(O)Cc1ccc(CC2(CNS(=O)(=O)c3ccc(Cl)cc3F)CCCC2)cc1 [Example 105, 4-[[1-[[[(4-Chloro-2-fluorophenyl)sulfonyl]amino]methyl]cyclopentyl]methyl]benzeneacetic acid] | – |
| 480 nM | 40 nM | – | – | Complex of sodium 4-[[1-[[[(4-chlorophenyl)sulfonyl]amino]methyl]cyclopentyl]methyl]benzeneacetate and β-cyclodextrine (1:1) [Example 23] | – |
| 710 nM | 150 nM | – | – | Complex of sodium trans-4-[[2-[[(4-chlorophenyl)sulfonyl]amino]cyclopentyl]methyl]benzeneacetate and β-cyclodextrine (1:1) [Example 22] | – |
